Experimental data published in patent US11497751B2, “Modulators of Rho-associated protein kinase” (Redx Pharma PLC, priority 2018, dated 2022).

Each compound was assayed against T1, N-terminal 6His-tagged ROCK2 catalytic domain 11-552 (Homo sapiens, UniProt O75116) (assay: ROCK2 binding activity: ROCK2 inhibition, ADP-Glo Kinase Assay). Details: 1.25 nM ROCK2, 100 μM long S6 peptide, 20 μM ATP; 1 hour pre-incubation; read-out: ADP-Glo kinase activity assay ROCK2 Category.
T1 construct: N-terminal 6His-tagged ROCK2 catalytic domain 11-552; 6His (N); purchased Dundee University, UK; host or cells: baculovirus expression system
Format: biochemical
How it was run: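 1.25 nM baculovirus-expressed ROCK2 pre-incubated 1 h with compound (1% DMSO), then 100 μM long S6 peptide and 20 μM ATP added for 1 h; 50 mM HEPES pH 7.5, 10 mM Mg acetate, 1 mM DTT. ADP-Glo luminescence; IC50 from four-parameter logistic fit.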

T1 sequence (O75116 11-552): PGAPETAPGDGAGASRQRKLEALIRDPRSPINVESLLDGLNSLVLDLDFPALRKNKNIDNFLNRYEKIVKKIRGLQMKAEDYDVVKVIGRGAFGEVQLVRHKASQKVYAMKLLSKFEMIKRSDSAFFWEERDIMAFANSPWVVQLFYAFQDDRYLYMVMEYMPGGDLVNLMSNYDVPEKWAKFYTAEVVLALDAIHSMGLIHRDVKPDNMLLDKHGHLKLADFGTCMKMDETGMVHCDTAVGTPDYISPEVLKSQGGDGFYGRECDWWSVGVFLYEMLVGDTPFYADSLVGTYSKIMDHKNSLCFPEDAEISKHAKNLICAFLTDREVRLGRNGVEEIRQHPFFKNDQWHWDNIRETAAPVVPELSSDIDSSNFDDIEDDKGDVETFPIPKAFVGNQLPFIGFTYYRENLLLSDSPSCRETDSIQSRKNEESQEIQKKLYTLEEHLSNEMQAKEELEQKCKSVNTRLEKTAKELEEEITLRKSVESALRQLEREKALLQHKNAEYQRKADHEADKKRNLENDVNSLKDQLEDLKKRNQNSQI

Compound	IC50
CCNC(=O)c1ccc(-c2nc(Nc3ccc4[nH]ncc4c3Cl)n(C)n2)cc1C(F)(F)F [Example 345]	3000 to 10000 nM
CCNC(=O)c1cc(F)c(-c2nc(Nc3ccc4[nH]ncc4c3Cl)n(C)n2)c(F)c1 [Example 359]	300 to 3000 nM
CCNC(=O)c1c(F)cc(-c2nc(Nc3ccc4[nH]ncc4c3Cl)n(C)n2)cc1F [Example 361]	300 to 3000 nM
CN1CCc2cc(-c3nc(Nc4ccc5[nH]ncc5c4Cl)n(C)n3)ccc2C1 [Example 367]	3000 to 10000 nM
CCNC(=O)c1ccc(-c2nc(Nc3ccc4[nH]ncc4c3Cl)n(C)n2)c2cccnc12 [Example 373]	300 to 3000 nM
Cn1nc(-c2ccc(CNS(=O)(=O)c3cccc(Cl)c3)cc2)nc1Nc1ccc2[nH]ncc2c1Cl [Example 374]	< 300 nM
COC(=O)c1ccc(-c2nc(Nc3ccc4[nH]ncc4c3C3CC3)n(C)n2)cc1OC [Example 375]	< 300 nM
COc1cc(-c2nc(Nc3ccc4[nH]ncc4c3C3CC3)n(C)n2)ccc1C(=O)NC1CCN(CC(F)(F)F)C1 (stereo not shown) [Example 376]	< 300 nM
Cn1nc(-c2ccc3c(c2)CCNC3=O)nc1Nc1ccc2[nH]ncc2c1C1CC1 [Example 377]	< 300 nM
Cn1nc(-c2ccc(C(=O)NCC(F)(F)F)nc2)nc1Nc1ccc2[nH]ncc2c1C1CC1 [Example 378]	< 300 nM
COc1cc(-c2nc(Nc3ccc4[nH]ncc4c3C3CC3)n(C)n2)cnc1C(=O)NC1CC1 [Example 379]	300 to 3000 nM
Cn1nc(-c2ccc(C(=O)NC3CC3)c(F)c2)nc1Nc1ccc2[nH]ncc2c1C1CC1 [Example 380]	< 300 nM
Cn1nc(-c2ccc3c(c2)COC3=O)nc1Nc1ccc2[nH]ncc2c1C1CC1 [Example 381]	< 300 nM
COc1cc(-c2nc(Nc3ccc4[nH]ncc4c3C3CC3)n(C)n2)ccc1C(=O)NC1CC1 [Example 383]	< 300 nM
Cn1nc(-c2ccc(C(N)C(F)(F)F)cc2)nc1Nc1ccc2[nH]ncc2c1C1CC1 (stereo not shown) [Example 384]	300 to 3000 nM
Cn1nc(-c2ccc(CNS(C)(=O)=O)cc2)nc1Nc1ccc2[nH]ncc2c1C1CC1 [Example 385]	< 300 nM
CCNC(c1ccc(-c2nc(Nc3ccc4[nH]ncc4c3C3CC3)n(C)n2)cc1)C(F)(F)F (stereo not shown) [Example 386]	300 to 3000 nM
CCNC(=O)c1ccc(-c2nc(Nc3ccc4[nH]ncc4c3C3CC3)n(C)n2)cc1F [Example 387]	< 300 nM
CCNC(c1ccc(-c2nc(Nc3ccc4[nH]ncc4c3C3CC3)n(C)n2)cc1)C(F)F (stereo not shown) [Example 388]	300 to 3000 nM
Cn1nc(-c2ccc3c(c2)CNCC3)nc1Nc1ccc2[nH]ncc2c1C1CC1 [Example 389]	3000 to 10000 nM
Cn1nc(-c2ccc(-c3ccccn3)cc2)nc1Nc1ccc2[nH]ncc2c1C1CC1 [Example 390]	< 300 nM
CCC(=O)N1CCc2cc(-c3nc(Nc4ccc5[nH]ncc5c4C4CC4)n(C)n3)ccc2C1 [Example 391]	< 300 nM
Cn1nc(-c2ccncc2)nc1Nc1ccc2[nH]ncc2c1C1CC1 [Example 392]	300 to 3000 nM
CCNC(=O)c1ccc(-c2nc(Nc3ccc4[nH]ncc4c3)n(C)n2)cc1C [Example 394]	300 to 3000 nM

Compound	IC50
CCNC(=O)c1ccc(-c2nc(Nc3ccc4[nH]ncc4c3)n(C)n2)c(OC)c1 [Example 395]	< 300 nM
Cc1cc(-c2nc(Nc3ccc4[nH]ncc4c3)n(C)n2)ccc1OCC(=O)NC(C)C [Example 396]	< 300 nM
CC(C)NC(=O)COc1ccc(-c2nc(Nc3ccc4[nH]ncc4c3)n(C)n2)cc1C(F)(F)F [Example 397]	< 300 nM
CCNC(=O)c1ccc(-c2nc(Nc3ccc4[nH]ncc4c3)n(C)n2)cc1C(F)(F)F [Example 398]	3000 to 10000 nM
CCNC(=O)c1ccc(-c2nc(Nc3ccc4[nH]ncc4c3)n(C)n2)c(C)c1 [Example 399]	< 300 nM
CC(C)NC(=O)COc1ccc(-c2nc(Nc3ccc4[nH]ncc4c3)n(C)n2)cc1C#N [Example 400]	< 300 nM
Cc1cc(OCC(=O)NC(C)C)ccc1-c1nc(Nc2ccc3[nH]ncc3c2)n(C)n1 [Example 401]	< 300 nM
CC(C)NC(=O)COc1ccc(-c2nc(Nc3ccc4[nH]ncc4c3)n(C)n2)c(C(F)(F)F)c1 [Example 402]	< 300 nM
CC(C)NC(=O)COc1ccc(-c2nc(Nc3ccc4[nH]ncc4c3)n(C)n2)c(C#N)c1 [Example 403]	< 300 nM
COc1cc(OCC(=O)NC(C)C)ccc1-c1nc(Nc2ccc3[nH]ncc3c2)n(C)n1 [Example 404]	< 300 nM
CC(C)NC(=O)COc1ccc(-c2nc(Nc3ccc4[nH]ncc4c3)n(C)n2)c(F)c1 [Example 405]	< 300 nM
CCNC(=O)c1ccc(-c2nc(Nc3ccc4[nH]ncc4c3)n(C)n2)c(F)c1 [Example 406]	< 300 nM
CC(C)NC(=O)COc1ccc(-c2nc(Nc3ccc4[nH]ncc4c3)n(C)n2)c(Cl)c1 [Example 407]	< 300 nM
CCNC(=O)c1ccc(-c2nc(Nc3ccc4[nH]ncc4c3)n(C)n2)c(C(F)(F)F)c1 [Example 408]	300 to 3000 nM
CCNC(=O)c1cc(F)c(-c2nc(Nc3ccc4[nH]ncc4c3)n(C)n2)cc1F [Example 409]	< 300 nM
CCNC(=O)c1c(F)cc(-c2nc(Nc3ccc4[nH]ncc4c3)n(C)n2)cc1F [Example 410]	300 to 3000 nM
CC(C)NC(=O)COc1ccc(-c2nc(Nc3ccc4[nH]ncc4c3)n(C)n2)c(F)c1F [Example 411]	< 300 nM
CCNC(=O)c1ccc(-c2nc(Nc3ccc4[nH]ncc4c3)n(C)n2)cc1C#N [Example 412]	< 300 nM
CCNC(=O)c1cc(F)c(-c2nc(Nc3ccc4[nH]ncc4c3)n(C)n2)c(F)c1 [Example 413]	< 300 nM
CN1CCc2cc(-c3nc(Nc4ccc5[nH]ncc5c4)n(C)n3)ccc2C1 [Example 414]	3000 to 10000 nM
CC(C)NC(=O)COc1c(F)cc(-c2nc(Nc3ccc4[nH]ncc4c3)n(C)n2)cc1F [Example 415]	< 300 nM
CC(C)NC(=O)COc1cc(F)c(-c2nc(Nc3ccc4[nH]ncc4c3)n(C)n2)cc1F [Example 416]	< 300 nM
Cc1cc(-c2nc(Nc3ccc4[nH]ncc4c3C)n(C)n2)ccc1C(=O)NCC(F)(F)F [Example 417]	< 300 nM

Now from value to compound:

IC50	Compound
< 300 nM	Cn1nc(-c2ccc(C(=O)NCC(F)(F)F)cc2)nc1Nc1ccc2[nH]ncc2c1C1CC1 [Example 343, 4-[5-[(4-cyclopropyl-1H-indazol-5-yl)amino]-1-methyl-1,2,4-triazol-3-yl]-N-(2,2,2-trifluoroethyl)benzamide]
< 300 nM	Cn1nc(-c2ccc(C(=O)NC3CC3)cc2)nc1Nc1ccc2[nH]ncc2c1C1CC1 [Example 344, N-Cyclopropyl-4-[5-[(4-cyclopropyl-1H-indazol-5-yl)amino]-1-methyl-1,2,4-triazol-3-yl]benzamide]
< 300 nM	CCNC(=O)c1ccc(-c2nc(Nc3ccc4[nH]ncc4c3Cl)n(C)n2)cc1C [Example 346]
< 300 nM	CCNC(=O)c1ccc(-c2nc(Nc3ccc4[nH]ncc4c3Cl)n(C)n2)c(OC)c1 [Example 347]
< 300 nM	CC(C)NC(=O)COc1ccc(-c2nc(Nc3ccc4[nH]ncc4c3Cl)n(C)n2)cc1C(F)(F)F [Example 348]
< 300 nM	CC(C)NC(=O)COc1ccc(-c2nc(Nc3ccc4[nH]ncc4c3Cl)n(C)n2)cc1C#N [Example 349]
< 300 nM	Cc1cc(-c2nc(Nc3ccc4[nH]ncc4c3Cl)n(C)n2)ccc1OCC(=O)NC(C)C [Example 350]
< 300 nM	CC(C)NC(=O)COc1ccc(-c2nc(Nc3ccc4[nH]ncc4c3Cl)n(C)n2)c(C#N)c1 [Example 351]
< 300 nM	CC(C)NC(=O)COc1ccc(-c2nc(Nc3ccc4[nH]ncc4c3Cl)n(C)n2)c(Cl)c1 [Example 352]
< 300 nM	COc1cc(OCC(=O)NC(C)C)ccc1-c1nc(Nc2ccc3[nH]ncc3c2Cl)n(C)n1 [Example 353]
< 300 nM	Cc1cc(OCC(=O)NC(C)C)ccc1-c1nc(Nc2ccc3[nH]ncc3c2Cl)n(C)n1 [Example 354]
< 300 nM	CC(C)NC(=O)COc1ccc(-c2nc(Nc3ccc4[nH]ncc4c3Cl)n(C)n2)c(F)c1 [Example 355]
< 300 nM	CCNC(=O)c1ccc(-c2nc(Nc3ccc4[nH]ncc4c3Cl)n(C)n2)c(F)c1 [Example 356]
< 300 nM	CCNC(=O)c1ccc(-c2nc(Nc3ccc4[nH]ncc4c3Cl)n(C)n2)c(C(F)(F)F)c1 [Example 357]
< 300 nM	CCNC(=O)c1ccc(-c2nc(Nc3ccc4[nH]ncc4c3Cl)n(C)n2)cc1C#N [Example 358]
< 300 nM	CCNC(=O)c1cc(F)c(-c2nc(Nc3ccc4[nH]ncc4c3Cl)n(C)n2)cc1F [Example 360]
< 300 nM	CC(C)NC(=O)COc1ccc(-c2nc(Nc3ccc4[nH]ncc4c3Cl)n(C)n2)c(F)c1F [Example 362]
< 300 nM	COc1cc(-c2nc(Nc3ccc4[nH]ncc4c3Cl)n(C)n2)ccc1C(=O)NC1CCN(CC(F)(F)F)C1 (stereo not shown) [Example 363]
< 300 nM	Cn1nc(-c2ccc3c(c2)CCNC3=O)nc1Nc1ccc2[nH]ncc2c1Cl [Example 364]
< 300 nM	COc1cc(-c2nc(Nc3ccc4[nH]ncc4c3Cl)n(C)n2)ccc1C(=O)NC1CNCC1(F)F (stereo not shown) [Example 365]
< 300 nM	Cc1cc(-c2nc(Nc3ccc4[nH]ncc4c3Cl)n(C)n2)ccc1C(=O)NCC(F)(F)F [Example 366]
< 300 nM	CC(C)NC(=O)COc1c(F)cc(-c2nc(Nc3ccc4[nH]ncc4c3Cl)n(C)n2)cc1F [Example 368]
< 300 nM	CC(C)NC(=O)COc1cc(F)c(-c2nc(Nc3ccc4[nH]ncc4c3Cl)n(C)n2)cc1F [Example 369]
< 300 nM	CCNC(=O)c1ccc(-c2nc(Nc3ccc4[nH]ncc4c3Cl)n(C)n2)cn1 [Example 370]
< 300 nM	Cn1nc(-c2ccc3c(c2)CCN(C(=O)C(C)(C)C)C3)nc1Nc1ccc2[nH]ncc2c1Cl [Example 371]
< 300 nM	Cn1nc(-c2ccc3c(c2)CCN(CC(F)(F)F)C3)nc1Nc1ccc2[nH]ncc2c1Cl [Example 372]
